± gives the standard deviation of the averaged measurements.
Tests used:
[1] = compound: COc1cc2ncnc(Nc3ccc(F)c(Cl)c3)c2cc1NC(=O)/C=C/CN1CCCCC1; assay: surviving fraction relative to DMSO-only wells; higher = less growth inhibition; conditions: exposure time: 5 days
How it was run: (§1)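 Tumour cell lines were grown to log phase and seeded at 250–500 cells per well in 384-well plates. They were exposed continuously to inhibitors at 0.5, 1, 5, 10, 50, 100, 500 and 1000 nM for five days, beginning 24 hours after seeding. Surviving fraction is CellTiter-Glo luminescence normalised to the median of DMSO-only wells.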

XAV-939 = compound: Oc1nc(-c2ccc(C(F)(F)F)cc2)nc2c1CSCC2 [XAV-939]; assay: as above; conditions: exposure time: 5 days
How it was run: as §1

Row | Test System | surviving fraction ([1]; 0.5 nM) | surviving fraction ([1]; 1 nM) | surviving fraction ([1]; 5 nM) | surviving fraction ([1]; 10 nM) | surviving fraction ([1]; 50 nM) | surviving fraction ([1]; 100 nM) | surviving fraction ([1]; 500 nM) | surviving fraction ([1]; 1000 nM) | surviving fraction (XAV-939; 0.5 nM) | surviving fraction (XAV-939; 1 nM) | surviving fraction (XAV-939; 5 nM) | surviving fraction (XAV-939; 10 nM) | surviving fraction (XAV-939; 50 nM) | surviving fraction (XAV-939; 100 nM) | surviving fraction (XAV-939; 500 nM) | surviving fraction (XAV-939; 1000 nM)
1 | HCC1395 BREAST | 0.92 ± 0.09 | 0.93 ± 0.037 | 1.08 ± 0.099 | 1.03 ± 0.036 | 1.05 ± 0.16 | 1.01 ± 0.21 | 0.896 ± 0.14 | 0.809 ± 0.15 | 0.889 ± 0.052 | 0.822 ± 0.34 | 0.987 ± 0.096 | 0.937 ± 0.25 | 0.973 ± 0.12 | 0.847 ± 0.23 | 1.04 ± 0.027 | 0.855 ± 0.14
2 | HCC1806 BREAST | 1.11 ± 0.16 | 1.05 ± 0.11 | 1 ± 0.083 | 0.79 ± 0.046 | 0.663 ± 0.087 | 0.573 ± 0.014 | 0.458 ± 0.052 | 0.322 ± 0.022 | 0.98 ± 0.029 | 1.2 ± 0.089 | 1.11 ± 0.078 | 1.07 ± 0.061 | 1.14 ± 0.13 | 1.1 ± 0.036 | 1.04 ± 0.073 | 1.06 ± 0.091
3 | HCC1954 BREAST | 1.11 ± 0.075 | 0.808 ± 0.064 | 0.756 ± 0.028 | 0.722 ± 0.084 | 0.508 ± 0.0074 | 0.471 ± 0.0092 | 0.283 ± 0.013 | 0.155 ± 0.018 | 0.826 ± 0.073 | 1.02 ± 0.041 | 1.15 ± 0.24 | 1.06 ± 0.042 | 1.111 ± 0.0085 | 0.967 ± 0.088 | 0.637 ± 0.0081 | 0.723 ± 0.057
4 | HCT15 LARGE INTESTINE | 1.03 ± 0.044 | 1.09 ± 0.06 | 1.05 ± 0.043 | 1.06 ± 0.069 | 1.02 ± 0.033 | 1.06 ± 0.031 | 1.03 ± 0.088 | 0.821 ± 0.057 | 1.03 ± 0.058 | 1.07 ± 0.031 | 1.04 ± 0.034 | 1.07 ± 0.059 | 0.932 ± 0.054 | 1.03 ± 0.03 | 0.961 ± 0.064 | 0.973 ± 0.04
5 | HELA CERVIX | 1.07 ± 0.055 | 1.07 ± 0.051 | 1 ± 0.076 | 1.04 ± 0.023 | 1.18 ± 0.038 | 1.17 ± 0.025 | 1.19 ± 0.072 | 1.13 ± 0.071 | 1.02 ± 0.066 | 1.07 ± 0.033 | 1.06 ± 0.025 | 1.08 ± 0.036 | 1.09 ± 0.059 | 1.16 ± 0.028 | 1.09 ± 0.053 | 1.1 ± 0.049
6 | HOS BONE | 1.017 ± 0.0078 | 1 ± 0.018 | 1.02 ± 0.017 | 1.02 ± 0.015 | 1.05 ± 0.019 | 1.04 ± 0.023 | 0.951 ± 0.057 | 0.888 ± 0.032 | 1.01 ± 0.028 | 1.05 ± 0.016 | 1.02 ± 0.013 | 1.04 ± 0.0066 | 1.04 ± 0.029 | 1.04 ± 0.011 | 0.996 ± 0.02 | 1.05 ± 0.065
7 | HOSMNG BONE | 0.909 ± 0.07 | 0.924 ± 0.11 | 0.958 ± 0.063 | 0.917 ± 0.086 | 1.033 ± 0.0083 | 1.02 ± 0.046 | 0.97 ± 0.1 | 0.953 ± 0.017 | 0.922 ± 0.14 | 1.01 ± 0.11 | 0.947 ± 0.077 | 0.934 ± 0.1 | 0.948 ± 0.17 | 0.944 ± 0.089 | 0.934 ± 0.069 | 1.06 ± 0.094
8 | HSSYII SYNOVIAL | 0.98 ± 0.031 | 0.942 ± 0.038 | 0.966 ± 0.054 | 0.942 ± 0.03 | 0.928 ± 0.059 | 0.927 ± 0.045 | 0.715 ± 0.041 | 0.495 ± 0.0068 | 0.942 ± 0.026 | 0.901 ± 0.035 | 0.994 ± 0.043 | 0.976 ± 0.011 | 0.961 ± 0.013 | 0.938 ± 0.031 | 0.667 ± 0.034 | 0.617 ± 0.038
9 | HT1080 SOFT TISSUE | 1.02 ± 0.015 | 1.01 ± 0.023 | 0.964 ± 0.0098 | 0.984 ± 0.026 | 1.03 ± 0.015 | 0.981 ± 0.034 | 0.9 ± 0.04 | 0.751 ± 0.045 | 1.05 ± 0.018 | 1.04 ± 0.05 | 1.03 ± 0.024 | 1.02 ± 0.023 | 0.971 ± 0.0036 | 0.872 ± 0.0099 | 0.579 ± 0.0091 | 0.476 ± 0.0083
10 | HU09 BONE | 1.09 ± 0.03 | 0.996 ± 0.062 | 1.14 ± 0.028 | 1.11 ± 0.12 | 1.15 ± 0.019 | 1.01 ± 0.12 | 0.635 ± 0.0066 | 0.432 ± 0.026 | 1.11 ± 0.087 | 1.13 ± 0.061 | 1.06 ± 0.17 | 1.09 ± 0.051 | 1.01 ± 0.11 | 1.21 ± 0.031 | 0.817 ± 0.049 | 0.788 ± 0.043
11 | HUO3N1 BONE | 1.03 ± 0.037 | 0.983 ± 0.057 | 1.06 ± 0.065 | 1 ± 0.016 | 1.07 ± 0.073 | 1.03 ± 0.059 | 0.789 ± 0.018 | 0.629 ± 0.032 | 1.03 ± 0.037 | 1.07 ± 0.12 | 1.04 ± 0.032 | 1.06 ± 0.048 | 1.09 ± 0.064 | 1.08 ± 0.034 | 0.761 ± 0.043 | 0.759 ± 0.0095
12 | JIMT1 BREAST | 1 ± 0.044 | 0.989 ± 0.031 | 0.91883 ± 0.00029 | 0.862 ± 0.012 | 0.653 ± 0.013 | 0.667 ± 0.016 | 0.545 ± 0.019 | 0.362 ± 0.025 | 1 ± 0.013 | 1.03 ± 0.027 | 0.9983 ± 0.008 | 0.995 ± 0.031 | 1 ± 0.05 | 1.04 ± 0.025 | 0.934 ± 0.032 | 0.943 ± 0.0033
13 | JURKAT HAEMATOPOIETIC AND LYMPHOID TISSUE | 1.08 ± 0.037 | 1.06 ± 0.029 | 1.06 ± 0.043 | 1.02 ± 0.017 | 1.03 ± 0.026 | 1.04 ± 0.034 | 0.881 ± 0.056 | 0.297 ± 0.025 | 1.03 ± 0.011 | 1.051 ± 0.0042 | 1.04 ± 0.013 | 1.03 ± 0.03 | 0.9907 ± 0.0059 | 1 ± 0.018 | 0.987 ± 0.02 | 0.981 ± 0.029
14 | KPD BONE | 1.03 ± 0.068 | 1.05 ± 0.04 | 1.04 ± 0.037 | 1.04 ± 0.015 | 1.05 ± 0.079 | 1.04 ± 0.019 | 0.718 ± 0.034 | 0.493 ± 0.025 | 0.937 ± 0.07 | 0.981 ± 0.061 | 0.999 ± 0.048 | 0.995 ± 0.043 | 0.992 ± 0.058 | 0.926 ± 0.035 | 0.883 ± 0.035 | 0.828 ± 0.061
15 | LM7 BONE | 0.93 ± 0.059 | 0.998 ± 0.078 | 0.983 ± 0.063 | 1.06 ± 0.094 | 1.01 ± 0.011 | 0.957 ± 0.055 | 0.532 ± 0.063 | 0.287 ± 0.006 | 0.964 ± 0.078 | 1.03 ± 0.062 | 1.05 ± 0.075 | 1.131 ± 0.011 | 1.08 ± 0.11 | 1.08 ± 0.048 | 0.915 ± 0.068 | 0.877 ± 0.045
16 | LNCAP PROSTATE | 0.807 ± 0.074 | 0.828 ± 0.13 | 0.858 ± 0.19 | 0.888 ± 0.16 | 0.95 ± 0.043 | 1.02 ± 0.048 | 0.896 ± 0.097 | 0.797 ± 0.12 | 0.85 ± 0.076 | 0.83 ± 0.11 | 0.94 ± 0.058 | 0.921 ± 0.054 | 0.797 ± 0.071 | 0.936 ± 0.1 | 0.741 ± 0.12 | 0.713 ± 0.14
17 | MCF7 BREAST | 0.908 ± 0.061 | 0.938 ± 0.022 | 0.922 ± 0.08 | 0.971 ± 0.096 | 1.01 ± 0.043 | 0.966 ± 0.034 | 1.01 ± 0.012 | 0.927 ± 0.07 | 0.941 ± 0.062 | 0.953 ± 0.07 | 0.954 ± 0.033 | 0.937 ± 0.023 | 1.01 ± 0.069 | 1.05 ± 0.041 | 1.03 ± 0.054 | 1.01 ± 0.061
18 | MDAMB134 BREAST | 0.947 ± 0.17 | 1.07 ± 0.061 | 0.944 ± 0.014 | 0.981 ± 0.14 | 1.05 ± 0.28 | 1.02 ± 0.21 | 0.795 ± 0.012 | 0.732 ± 0.013 | 1.05 ± 0.052 | 0.999 ± 0.041 | 1.06 ± 0.17 | 0.93 ± 0.03 | 1.13 ± 0.1 | 1.06 ± 0.22 | 1.15 ± 0.052 | 1.03 ± 0.051
19 | MDAMB157 BREAST | 0.951 ± 0.025 | 0.894 ± 0.018 | 1 ± 0.046 | 0.964 ± 0.056 | 0.95 ± 0.094 | 0.864 ± 0.051 | 0.887 ± 0.1 | 0.63 ± 0.095 | 0.969 ± 0.012 | 0.94 ± 0.11 | 0.974 ± 0.059 | 1.05 ± 0.039 | 0.919 ± 0.084 | 0.934 ± 0.079 | 0.775 ± 0.071 | 0.709 ± 0.074
20 | MDAMB231 BREAST | 1.03 ± 0.024 | 1.02 ± 0.024 | 1.05 ± 0.019 | 1.047 ± 0.01 | 1.02 ± 0.035 | 1 ± 0.024 | 0.692 ± 0.022 | 0.488 ± 0.039 | 0.957 ± 0.013 | 1.01 ± 0.028 | 0.982 ± 0.021 | 0.983 ± 0.018 | 0.917 ± 0.016 | 0.866 ± 0.025 | 0.656 ± 0.015 | 0.586 ± 0.026
21 | MDAMB361 BREAST | 0.896 ± 0.049 | 0.909 ± 0.035 | 0.922 ± 0.052 | 0.833 ± 0.03 | 0.738 ± 0.017 | 0.745 ± 0.055 | 0.586 ± 0.019 | 0.543 ± 0.046 | 0.879 ± 0.03 | 0.906 ± 0.036 | 0.955 ± 0.045 | 0.901 ± 0.034 | 1 ± 0.02 | 0.917 ± 0.099 | 0.923 ± 0.024 | 0.874 ± 0.054
